# Assay results taken from patent US8865158B2, “Bacteriophages for reducing toxicity of bacteria” (priority 2012, dated 2014).
# Where two headings read alike, the source gives them in different places.
# Tests used:
# [1] = system: E. coli K-12 nalidixic acid-resistant mutants, Nal1-8; test: MIC determination to nalidixic acid, resistant mutants; format: cell-based; details: Escherichia coli
# Method: Table 3 recites E. coli K-12 nalidixic acid-resistant mutants, Nal1-8, isolated on 50 μg/ml nalidixic acid. Substitutions in the GyrA protein are indicated, as well as the MIC to nalidixic acid.
# (§1) Over twenty different overnight cultures of a total of ˜10^11 E. coli K-12 cells were inoculated on Luria-Bertani (LB)-agar plates containing 50 μg/ml streptomycin or 50 μg/ml nalidixic acid. Resistant mutants emerged, in both cases, at a median frequency of ˜1 in 10^9 CFU, and were picked from different cultures, to reduce the occurrence of sibling mutants. These bacteria were streaked on an agar plate containing the appropriate antibiotic. The rpsL or gyrA genes of resistant mutants emerging on the plate were PCR-amplified followed by DNA sequencing.
# (§2) MIC determination was carried out by following the procedure described by Wiegand et al. (19). Briefly, bacterial cells were grown overnight at 32° C. in LB and diluted to 10^7-10^9 CFU/ml. The obtained suspension was serially diluted 10-fold for different spot concentrations, as indicated. Approximately 1 μl of bacterial suspension was then spotted onto selection plates containing different concentrations of either streptomycin or nalidixic acid along with the appropriate selection agent (chloramphenicol or tellurite), as indicated, using a 48-pin replicator. Plates were incubated overnight and photographed using MiniBis Pro (Bio-Imaging Systems). Photographs were digitally manipulated using GIMP2 software to adjust contrast. Liquid-based MIC determination assays were carried out by inoculating serial dilutions of an antibiotic in liquid LB broth with bacterial cultures (OD600 ˜0.05) in 96-well microtiter plates. Plates were incubated overnight at 32° C. and OD600 was then measured. The lowest antibiotic concentration at which the relative growth compared to the “no-drug” control was below 10% was determined as the MIC.
# pathogenic E. coli = details: 36 pathogenic E. coli resistant to high levels of nalidixic acid; cited from earlier work
# [2] = system: E. coli K-12 streptomycin-resistant mutants, Sm1-22; test: MIC determination to streptomycin, agar-plate assay, resistant mutants; format: cell-based; details: Escherichia coli
# Method: Table 2 recites the E. coli K-12 streptomycin-resistant mutants, Sm1-22, isolated on 50 μg/ml streptomycin. Substitutions in the RpsL protein are indicated, as well as the MIC to streptomycin.
# as §1, §2
# Minimum inhibitory concentration (MICs) to streptomycin were determined by agar-plate assay (19). In this assay, ˜10^4 cells are replica-plated on plates with different drug concentrations. The lowest concentration at which there is no visible colony-formation is defined as the MIC. The MICs throughout the study were also measured in a complementary liquid-determination assay, giving a similar readout (not shown). Two representatives of the most common streptomycin-resistant strains obtained above were taken for further study: strains Sm6 and Sm13, harboring mutations in rpsL leading to substitutions of R86S and K88R, respectively. […] These strains were transformed with the plasmid pRpsL-wt, encoding the wt rpsL, or a control plasmid, pRpsLΔ4, encoding a mock gene (a defective rpsL with a 4-bp deletion that disrupts the reading frame after amino acid 26 of the RpsL protein; see FIG. 1) under a modified early E. coli promoter from phage T7. Transformed cells were selected on agar plates supplemented with 35 μg/ml chloramphenicol, as the plasmid encodes chloramphenicol acetyl transferase, which confers chloramphenicol resistance. The MICs of the transformed strains to streptomycin were then determined.
# [3] = system: E. coli K-12 parental strain; test: MIC to streptomycin of the parental strain; format: cell-based; details: Escherichia coli
# Method: MIC determination was carried out by following the procedure described by Wiegand et al. (19). Briefly, bacterial cells were grown overnight at 32° C. in LB and diluted to 10^7-10^9 CFU/ml. The obtained suspension was serially diluted 10-fold for different spot concentrations, as indicated. Approximately 1 μl of bacterial suspension was then spotted onto selection plates containing different concentrations of either streptomycin or nalidixic acid along with the appropriate selection agent (chloramphenicol or tellurite), as indicated, using a 48-pin replicator. Plates were incubated overnight and photographed using MiniBis Pro (Bio-Imaging Systems). […] Plates were incubated overnight at 32° C. and OD600 was then measured. […]
# Minimum inhibitory concentration (MICs) to streptomycin were determined by agar-plate assay (19). […] The MICs throughout the study were also measured in a complementary liquid-determination assay, giving a similar readout (not shown). […] These strains were transformed with the plasmid pRpsL-wt, encoding the wt rpsL, or a control plasmid, pRpsLΔ4, encoding a mock gene (a defective rpsL with a 4-bp deletion that disrupts the reading frame after amino acid 26 of the RpsL protein; see FIG. 1) under a modified early E. coli promoter from phage T7. […] The MICs of the transformed strains to streptomycin were then determined.
# E. coli = details: cited from earlier work
smiles,measurement,setting,value
CCn1cc(C(=O)O)c(=O)c2ccc(C)nc21 [nalidixic acid],MIC,"[1]; read-out: MIC to nalidixic acid, mutant Nal1, GyrA S83L",≥ 50 µg/mL
same,MIC,"[1]; read-out: MIC to nalidixic acid, mutant Nal2, GyrA S83L",≥ 50 µg/mL
same,MIC,"[1]; read-out: MIC to nalidixic acid, mutant Nal3, GyrA S83L",≥ 50 µg/mL
same,MIC,"[1]; read-out: MIC to nalidixic acid, mutant Nal4, GyrA D87G",128 µg/mL
same,MIC,"[1]; read-out: MIC to nalidixic acid, mutant Nal5, GyrA D87G",128 µg/mL
same,MIC,"[1]; read-out: MIC to nalidixic acid, mutant Nal6, GyrA D87G",128 µg/mL
same,MIC,"[1]; read-out: MIC to nalidixic acid, mutant Nal7, GyrA D87G",128 µg/mL
same,MIC,"[1]; read-out: MIC to nalidixic acid, mutant Nal8, GyrA D87G",128 µg/mL
same,MIC of nalidixic acid,pathogenic E. coli,≥ 256 µg/mL
[H]/N=C(/N)N[C@H]1[C@H](O)[C@@H](O)[C@H](O[C@@H]2O[C@@H](C)[C@](O)(C=O)[C@H]2O[C@@H]2O[C@@H](CO)[C@H](O)[C@@H](O)[C@@H]2NC)[C@@H](N/C(N)=N\[H])[C@@H]1O [streptomycin],MIC,"[2]; read-out: MIC to streptomycin, mutant Sm1, RpsL P42S",≥ 50000 µg/mL
same,MIC,"[2]; read-out: MIC to streptomycin, mutant Sm3, RpsL K43N",≥ 50000 µg/mL
same,MIC,"[2]; read-out: MIC to streptomycin, mutant Sm4, RpsL R54S",≥ 50000 µg/mL
same,MIC,"[2]; read-out: MIC to streptomycin, mutant Sm5, RpsL R86S",≥ 50000 µg/mL
same,MIC,"[2]; read-out: MIC to streptomycin, mutant Sm6, RpsL R86S",100000 µg/mL
same,MIC,"[2]; read-out: MIC to streptomycin, mutant Sm7, RpsL R86S",≥ 50000 µg/mL
same,MIC,"[2]; read-out: MIC to streptomycin, mutant Sm8, RpsL R86S",≥ 50000 µg/mL
same,MIC,"[2]; read-out: MIC to streptomycin, mutant Sm9, RpsL R86S",≥ 50000 µg/mL
same,MIC,"[2]; read-out: MIC to streptomycin, mutant Sm10, RpsL R86S",≥ 50000 µg/mL
same,MIC,"[2]; read-out: MIC to streptomycin, mutant Sm11, RpsL K88E",≥ 50000 µg/mL
same,MIC,"[2]; read-out: MIC to streptomycin, mutant Sm22, no substitution in RpsL",≥ 50000 µg/mL
same,MIC,"[2]; read-out: MIC to streptomycin, resistant mutant Sm6 (R86S) without sensitizing construct",100 µg/mL
same,MIC,"[2]; read-out: MIC to streptomycin, resistant mutant Sm13 (K88R) without sensitizing construct",200 µg/mL
same,MIC,[3],1.56 µg/mL
"O=[Te]([O-])[O-].[K+].[K+] [tellurite, potassium-tellurite (K2TeO3)]",MIC of tellurite,E. coli; E. coli either having or lacking the chromosomal tehAB genes,2 µg/mL
same,MIC of tellurite,E. coli; cells harboring an extrachromosomal tehAB with an active promoter,128 µg/mL
same,Increase of MIC of tellurite upon tehAB expression from an active promoter,E. coli; tehAB expressed from an active promoter (e.g. T7),50-100 fold
